Measurements as given in article PMC6269562, “Design, Synthesis and Biological Evaluation of New Imidazo[2,1-b]Thiazole Derivatives as Selective COX-2 Inhibitors” (Iranian Journal of Pharmaceutical Research : IJPR, 2018).
Where two headings read alike, the source gives them in different places.

Tests used:
[1] = system: COX-2; conditions: cited from earlier work
[2] = system: COX-1; conditions: read-out: IC50 Whole cell COX-1; cited from earlier work
[3] = system: COX-2; conditions: read-out: COX-2 IC50; cited from earlier work
[4] = molecular target: T1, ovine COX-1 (Ovis aries, UniProt P05979); test: biochemical; conditions: ovine COX-1/COX-2 assay kit, means of two determinations
T1 construct: purchased Cayman chemical, MI, USA
T1 sequence (P05979 25-600): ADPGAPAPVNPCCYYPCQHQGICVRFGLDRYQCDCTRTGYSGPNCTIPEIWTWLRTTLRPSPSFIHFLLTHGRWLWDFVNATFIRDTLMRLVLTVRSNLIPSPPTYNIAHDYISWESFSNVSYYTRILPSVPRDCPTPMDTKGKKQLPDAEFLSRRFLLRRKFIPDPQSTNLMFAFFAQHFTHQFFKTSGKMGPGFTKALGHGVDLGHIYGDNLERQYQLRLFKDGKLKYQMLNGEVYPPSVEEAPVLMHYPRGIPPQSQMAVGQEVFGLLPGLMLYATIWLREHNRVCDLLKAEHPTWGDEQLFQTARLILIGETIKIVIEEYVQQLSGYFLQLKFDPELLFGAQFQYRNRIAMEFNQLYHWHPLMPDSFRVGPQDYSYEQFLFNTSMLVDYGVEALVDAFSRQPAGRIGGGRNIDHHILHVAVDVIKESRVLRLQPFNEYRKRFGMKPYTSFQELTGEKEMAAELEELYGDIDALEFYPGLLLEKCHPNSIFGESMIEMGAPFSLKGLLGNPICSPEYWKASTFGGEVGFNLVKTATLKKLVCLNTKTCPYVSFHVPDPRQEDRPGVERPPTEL
Text: (§1) In-vitro cyclooxygenase (COX) inhibition assay
(§2) Enzyme chemiluminescent kit (Cayman chemical, MI, USA) was used to evaluate inhibition activities of synthesized compounds based on our previous reported procedure ([34]). The Cayman chemical chemiluminescent COX (ovine) inhibitor screening assay employs the heme-catalyzed hydroperoxidase activity of ovine cyclooxygenases to produce luminescence in the presence of a cyclic naphthalene hydrazide and the substrate arachidonic acid.

[5] = molecular target: T2, ovine COX-2 (Ovis aries, UniProt P79208); test: biochemical; conditions: for IC50: ovine COX-1/COX-2 assay kit, means of two determinations; for Selectivity index (SI): COX-1 IC50/COX-2 IC50
T2 construct: purchased Cayman chemical, MI, USA
T2 sequence (P79208 17-603): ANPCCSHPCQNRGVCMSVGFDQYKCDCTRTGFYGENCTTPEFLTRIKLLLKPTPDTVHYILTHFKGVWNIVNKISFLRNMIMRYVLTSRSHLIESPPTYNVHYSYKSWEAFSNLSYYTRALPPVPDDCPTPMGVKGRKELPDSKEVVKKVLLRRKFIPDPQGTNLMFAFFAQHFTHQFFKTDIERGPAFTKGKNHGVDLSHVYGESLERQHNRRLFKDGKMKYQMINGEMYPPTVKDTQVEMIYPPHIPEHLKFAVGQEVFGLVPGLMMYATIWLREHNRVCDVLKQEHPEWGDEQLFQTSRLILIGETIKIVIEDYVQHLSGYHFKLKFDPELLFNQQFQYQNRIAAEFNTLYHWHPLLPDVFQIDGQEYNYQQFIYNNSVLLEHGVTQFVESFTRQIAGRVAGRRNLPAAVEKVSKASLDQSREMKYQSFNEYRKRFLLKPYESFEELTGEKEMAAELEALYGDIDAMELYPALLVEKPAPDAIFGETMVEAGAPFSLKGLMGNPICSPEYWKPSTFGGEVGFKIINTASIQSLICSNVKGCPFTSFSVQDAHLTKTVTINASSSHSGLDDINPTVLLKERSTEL
Text: as §1, §2

## CS(=O)(=O)c1ccc(-c2nc3ccccn3c2CN2CCOCC2)cc1 [2-(4-(methylsulfonyl)phenyl)-3-(morpholinomethyl)H-imidazo[1,2-a]pyridine]
[1]; COX-2 selectivity index
  SI: 217.1
[1]; read-out: IC50 (COX-2 inhibition)
  IC50: 0.07 µM

## Cc1cnc2c(-c3ccc(F)cc3)c(-c3ccc(S(C)(=O)=O)cc3)nn2c1C [3-(4-fluorophenyl)-6,7-dimethyl-2-(4-(methylsulfonyl)phenyl)pyrazolo[1,5-a]pyrimidine]
[2]
  IC50: > 10 µM

## COc1ccc2[nH]c(-c3ccc(S(C)(=O)=O)cc3)cc2c1 [5-methoxy-2-(4-(methylsulfonyl)phenyl)-1H-indole]
[3]
  IC50: 0.08 µM

## CN(C)Cc1c(-c2ccc(S(C)(=O)=O)cc2)nc2sccn12 [Compound 6a, N,N-Dimethyl-1-(6-(4-(methylsulfonyl)phenyl)imidazo[2,1-b]thiazol-5-yl)methanamine]
[4]
  IC50: > 100 µM
[5]
  IC50: 0.08 µM
other
  melting point: 123 to 124 °C

## CCN(CC)Cc1c(-c2ccc(S(C)(=O)=O)cc2)nc2sccn12 [Compound 6b, N-Ethyl-N-((6-(4-(methylsulfonyl)phenyl)imidazo[2,1-b]thiazol-5-yl)methyl)ethanamine]
[4]
  IC50: 48.5 µM
[5]
  Selectivity index (SI): 404.1
  IC50: 0.12 µM
other
  melting point: 132 to 135 °C

## CCCN(CCC)Cc1c(-c2ccc(S(C)(=O)=O)cc2)nc2sccn12 [Compound 6c, N-((6-(4-(Methylsulfonyl)phenyl)imidazo[2,1-b]thiazol-5-yl)methyl)-N-propylpropan-1-amine]
other
  melting point: 165 to 167 °C

## CS(=O)(=O)c1ccc(-c2nc3sccn3c2CN2CCCC2)cc1 [Compound 6d, 6-(4-(Methylsulfonyl)phenyl)-5-(pyrrolidin-1-ylmethyl)imidazo[2,1-b]thiazole]
[4]
  IC50: 12.1 µM
[5]
  Selectivity index (SI): 134.4
  IC50: 0.09 µM
other
  melting point: 144 to 146 °C

## CS(=O)(=O)c1ccc(-c2nc3sccn3c2CN2CCCCC2)cc1 [Compound 6e, 6-(4-(Methylsulfonyl)phenyl)-5-(piperidin-1-ylmethyl)imidazo[2,1-b]thiazole]
[4]
  IC50: 50.1 µM
[5]
  Selectivity index (SI): 313.1
  IC50: 0.16 µM
other
  melting point: 142.6 to 144 °C

## CS(=O)(=O)c1ccc(-c2nc3sccn3c2CN2CCOCC2)cc1 [Compound 6f, 4-((6-(4-(Methylsulfonyl)phenyl)imidazo[2,1-b]thiazol-5-yl)methyl)morpholine]
[4]
  IC50: 55.1 µM
[5]
  Selectivity index (SI): 551.0
  IC50: 0.1 µM
other
  melting point: 203 to 206 °C

## CS(=O)(=O)c1ccc(-c2nc3sccn3c2CN(CCO)CCO)cc1 [Compound 6g, 2,2′-(((6-(4-(Methylsulfonyl)phenyl)imidazo[2,1-b]thiazol-5-yl)methyl)azanediyl)bis(ethan-1-ol)]
[4]
  IC50: > 100 µM
[5]
  IC50: 0.11 µM
other
  melting point: 168.8 to 170 °C
